US20210396743A1 (priority 2020, published 2021)
Entries after “also recorded” stand apart in the source; their conditions may differ. Read-outs that look alike come from different tables or passages of the source. Residues, ends and D or L forms follow the SMILES beside them.

Legend:
SdeA181-1000 [1] = target: T1, SdeA181-1000 (Legionella pneumophila subsp. pneumophila, UniProt Q5ZTK4); assay type: biochemical, L. pneumophila
SdeA [2] = target: SdeA (Legionella pneumophila subsp. pneumophila, UniProt Q5ZTK4); conditions: cited from earlier work
SdeA [3] = assay type: biochemical, L. pneumophila; conditions: 100 μM analogue, 100 μM ubiquitin, 0.5 μM enzyme, emission 410 nm
SdeA181-1000 [4] = target: T1, SdeA181-1000; assay type: biochemical, L. pneumophila; remark: listed apart in the source
SdeA181-1000 [5] = target: T1, SdeA181-1000; assay type: biochemical, L. pneumophila; remark: listed apart in the source

T1 sequence (Q5ZTK4 181-1000 limits assumed): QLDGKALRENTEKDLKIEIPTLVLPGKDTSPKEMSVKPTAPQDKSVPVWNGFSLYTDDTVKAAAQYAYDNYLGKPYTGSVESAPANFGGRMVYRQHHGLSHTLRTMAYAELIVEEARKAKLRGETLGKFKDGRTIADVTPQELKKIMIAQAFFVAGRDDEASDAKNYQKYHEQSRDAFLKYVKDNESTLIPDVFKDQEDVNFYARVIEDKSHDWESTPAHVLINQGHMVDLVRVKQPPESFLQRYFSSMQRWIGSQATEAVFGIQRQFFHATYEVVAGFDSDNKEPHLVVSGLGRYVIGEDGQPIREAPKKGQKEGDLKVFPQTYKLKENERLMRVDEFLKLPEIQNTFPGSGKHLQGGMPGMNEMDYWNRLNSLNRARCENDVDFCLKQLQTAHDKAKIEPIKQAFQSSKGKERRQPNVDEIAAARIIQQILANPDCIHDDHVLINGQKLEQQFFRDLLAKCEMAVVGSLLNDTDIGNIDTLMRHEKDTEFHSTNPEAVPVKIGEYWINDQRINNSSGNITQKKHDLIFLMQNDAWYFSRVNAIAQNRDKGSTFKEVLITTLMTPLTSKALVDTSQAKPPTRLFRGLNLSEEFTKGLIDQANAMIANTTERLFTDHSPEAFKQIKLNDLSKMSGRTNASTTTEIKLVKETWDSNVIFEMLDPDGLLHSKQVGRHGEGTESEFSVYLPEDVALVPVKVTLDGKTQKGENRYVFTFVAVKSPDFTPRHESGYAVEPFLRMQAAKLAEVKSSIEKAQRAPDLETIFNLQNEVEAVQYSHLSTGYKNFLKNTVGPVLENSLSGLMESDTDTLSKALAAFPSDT
Chain of SdeA (Legionella pneumophila subsp. pneumophila, UniProt Q5ZTK4) (Q5ZTK4 whole entry, looked up): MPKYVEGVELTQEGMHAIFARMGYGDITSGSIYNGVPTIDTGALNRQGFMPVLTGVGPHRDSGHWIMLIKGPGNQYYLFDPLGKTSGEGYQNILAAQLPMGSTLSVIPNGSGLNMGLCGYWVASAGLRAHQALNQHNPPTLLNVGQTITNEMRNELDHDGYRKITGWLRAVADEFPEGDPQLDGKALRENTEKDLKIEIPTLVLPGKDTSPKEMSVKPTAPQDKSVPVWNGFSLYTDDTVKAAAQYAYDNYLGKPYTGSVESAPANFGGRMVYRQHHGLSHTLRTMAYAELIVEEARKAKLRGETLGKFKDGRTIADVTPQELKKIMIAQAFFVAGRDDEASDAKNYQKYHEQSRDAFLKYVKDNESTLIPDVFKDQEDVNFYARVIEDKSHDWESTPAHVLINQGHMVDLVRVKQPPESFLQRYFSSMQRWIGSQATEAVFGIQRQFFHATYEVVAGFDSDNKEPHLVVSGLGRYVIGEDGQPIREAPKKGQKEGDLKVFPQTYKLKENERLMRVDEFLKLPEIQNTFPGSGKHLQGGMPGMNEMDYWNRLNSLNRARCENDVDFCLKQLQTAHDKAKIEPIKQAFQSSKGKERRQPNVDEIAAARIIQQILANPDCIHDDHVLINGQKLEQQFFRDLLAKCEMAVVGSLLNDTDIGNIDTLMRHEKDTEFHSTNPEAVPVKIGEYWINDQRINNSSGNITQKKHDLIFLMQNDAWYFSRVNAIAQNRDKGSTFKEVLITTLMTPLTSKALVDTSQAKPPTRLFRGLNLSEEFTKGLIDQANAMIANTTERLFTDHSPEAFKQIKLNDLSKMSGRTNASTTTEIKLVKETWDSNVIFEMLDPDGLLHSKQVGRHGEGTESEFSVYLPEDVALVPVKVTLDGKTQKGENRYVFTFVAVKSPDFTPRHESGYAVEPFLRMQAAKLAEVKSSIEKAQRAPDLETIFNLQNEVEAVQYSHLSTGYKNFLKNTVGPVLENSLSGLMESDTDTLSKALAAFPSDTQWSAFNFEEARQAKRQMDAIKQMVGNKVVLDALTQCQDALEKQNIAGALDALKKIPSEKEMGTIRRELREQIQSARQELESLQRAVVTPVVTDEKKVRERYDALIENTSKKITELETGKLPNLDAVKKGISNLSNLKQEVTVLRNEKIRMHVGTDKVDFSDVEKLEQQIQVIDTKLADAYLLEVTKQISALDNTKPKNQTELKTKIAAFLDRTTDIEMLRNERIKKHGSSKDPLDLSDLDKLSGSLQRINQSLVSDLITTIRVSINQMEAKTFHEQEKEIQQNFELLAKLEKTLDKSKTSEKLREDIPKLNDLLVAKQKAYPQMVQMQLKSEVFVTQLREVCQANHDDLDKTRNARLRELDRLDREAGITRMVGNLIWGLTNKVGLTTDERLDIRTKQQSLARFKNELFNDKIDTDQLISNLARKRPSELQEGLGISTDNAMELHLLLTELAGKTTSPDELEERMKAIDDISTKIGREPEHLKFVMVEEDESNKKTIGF

For `Nc1ncnc2c1ncn2[C@@H]1O[C@H](COP(=O)(O)OP(=O)(O)OC[C@H]2OC(O)[C@H](O)[C@@H]2O)[C@@H](O)[C@H]1O` (some centres unmarked) [ADP-ribose], the “inhibition of peptide ubiquitination” value (SdeA181-1000 [1]) was “inhibition of peptide ubiquitination; also recorded: impairment of peptide ubiquitination”.
For `Nc1ncnc2c1ncn2[C@@H]1O[C@H](COP(=O)(O)O)[C@@H](O)[C@H]1O` [AMP, adenosine monophosphate], the “inhibition of peptide ubiquitination” value (SdeA181-1000 [1]) is given as “inhibition of peptide ubiquitination; also recorded: impairment of peptide ubiquitination” and the “inhibitor of SdeA-catalyzed ubiquitination (previous study)” value (SdeA [2]) is given as “weak inhibitor”.
In the case of `NC(=O)c1ccc[n+]([C@@H]2O[C@H](COP(=O)(O)OP(=O)([O-])OC[C@H]3O[C@@H](c4snc5c(N)ncnc45)C(O)C3O)C(O)C2O)c1` (some centres unmarked) [N^tzAD^+], the “fluorescence increase on incubation with SdeA and Ub” value (SdeA [3]; listed as NtzAD+) is reported as “lower fold increase in fluorescence intensity”.
In the case of `CSCC[C@H](NC(=O)c1ccc(-c2c3ccc(=O)cc-3oc3cc(O)ccc23)c(C(=O)O)c1)C(=O)N[C@@H](CO)C(=O)N[C@@H](CO)C(=O)N[C@@H](CCSC)C(=O)N[C@@H](CC(N)=O)C(=O)N1CCC[C@H]1C(=O)N[C@@H](CCC(=O)O)C(=O)N[C@@H](Cc1ccc(O)cc1)C(=O)N[C@@H](CC(=O)O)C(N)=O` [peptide] (HELM PEPTIDE1{[O=C(O)c1cc(C(=O)[*:2])ccc1-c1c2ccc(=O)cc-2oc2cc(O)ccc12].M.S.S.M.N.P.E.Y.D.[am]}$$$$V2.0), the “ubiquitination of peptide by SdeA (fluorescence polarization)” value (SdeA181-1000 [4]) is reported as “significant increase in FP”, the Km (SdeA181-1000 [4]; read-out: apparent KM) is reported as about 80 µM and the “in-gel fluorescence of ubiquitinated peptide (SDS-PAGE)” value (SdeA181-1000 [5]) is reported as “presence of a fluorescent band around 10 kDa”.
In the case of `NC(=O)c1ccc[n+]([C@@H]2O[C@H](COP(=O)([O-])OP(=O)([O-])OC[C@H]3O[C@@H](n4cnc5c4nc[n+]4cc[nH]c54)C(O)[C@H]3O)[C@H](O)C2O)c1` (some centres unmarked) [εNAD^+, nicotinamide 1,N6-ethenoadenine dinucleotide], the “fluorescence increase on incubation with SdeA and Ub” value (SdeA [3]) is reported as “increase in fluorescence emission at 410 nm”.
